Results: patent US8729061B2, “Pyrrolidine derivatives” (Hoffmann-La Roche Inc., priority 2011, dated 2014)

Legend:
Type in all cases: biochemical
human Cat B = human Cat B (Homo sapiens (Human), UniProt P07858); test: Cathepsin enzyme inhibition assay (fluorogenic peptide substrate), Cat B; conditions: enzyme 1 nM, substrate Z-Val-Val-Arg-AMC 20 μM, pH 6.5
Protocol: (§1) Enzyme activity is measured by observing the increase in fluorescence intensity caused by cleavage of a peptide substrate containing a fluorophore whose emission is quenched in the intact peptide.
(§2) Assay buffer: 100 mM potassium phosphate pH 6.5, EDTA-Na 5 mM, Triton X-100 0.001%, DTT 5 mM.
(§3) Enzymes (all at 1 nM): human and mouse Cathepsin S, Cat K, Cat B, Cat L. Substrate (20 μM): Z-Val-Val-Arg-AMC, except for Cat K which uses Z-Leu-Arg-AMC (both from Bachem).
(§4) Excitation 360 nm, Emission 465 nm.
(§5) Enzyme is added to the substance dilutions in 96-well microtitre plates and the reaction is started with substrate. […] IC50 are calculated by standard methods. Inhibition of human Cat S, mouse Cat S, human Cat K, mouse Cat K, human Cat B, mouse Cat B, human Cat L and mouse Cat L have been measured separately.

human Cathepsin S = human Cathepsin S (Homo sapiens (Human), UniProt P25774); test: Cathepsin enzyme inhibition assay (fluorogenic peptide substrate), Cat S; conditions: enzyme 1 nM, substrate Z-Val-Val-Arg-AMC 20 μM, pH 6.5
Protocol: as §1, §2, §3, §4, §5

human Cat L = human Cat L (Homo sapiens (Human), UniProt P07711); test: Cathepsin enzyme inhibition assay (fluorogenic peptide substrate), Cat L; conditions: enzyme 1 nM, substrate Z-Val-Val-Arg-AMC 20 μM, pH 6.5
Protocol: as §1, §2, §3, §4, §5

human Cat K = human Cat K (Homo sapiens (Human), UniProt P43235); test: Cathepsin enzyme inhibition assay (fluorogenic peptide substrate), Cat K; conditions: enzyme 1 nM, substrate Z-Leu-Arg-AMC 20 μM, pH 6.5
Protocol: as §1, §2, §3, §4, §5

Sequence of human Cathepsin S (P25774 115-331): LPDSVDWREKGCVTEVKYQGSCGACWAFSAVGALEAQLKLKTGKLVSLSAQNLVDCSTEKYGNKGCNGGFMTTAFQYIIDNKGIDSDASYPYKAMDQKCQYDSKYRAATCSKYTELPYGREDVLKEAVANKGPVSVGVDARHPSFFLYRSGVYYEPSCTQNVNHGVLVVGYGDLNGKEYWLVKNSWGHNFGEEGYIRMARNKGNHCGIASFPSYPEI
Sequence of human Cat K (P43235 115-329): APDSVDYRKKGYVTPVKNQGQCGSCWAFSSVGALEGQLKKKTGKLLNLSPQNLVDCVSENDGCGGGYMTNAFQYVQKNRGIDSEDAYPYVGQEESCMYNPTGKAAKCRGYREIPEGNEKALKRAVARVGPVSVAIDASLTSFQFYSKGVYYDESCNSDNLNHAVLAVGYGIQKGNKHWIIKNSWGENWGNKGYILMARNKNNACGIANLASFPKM
Sequence of human Cat L (P07711 114-333): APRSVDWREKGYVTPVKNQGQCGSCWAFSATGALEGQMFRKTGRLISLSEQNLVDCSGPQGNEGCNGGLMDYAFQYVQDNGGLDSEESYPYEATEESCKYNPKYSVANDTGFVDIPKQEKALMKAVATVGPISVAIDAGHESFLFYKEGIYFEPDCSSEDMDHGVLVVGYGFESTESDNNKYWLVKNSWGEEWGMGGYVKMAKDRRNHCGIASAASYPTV

Row | Compound | IC50 (human Cat B) [nM] | IC50 (human Cathepsin S) [nM] | IC50 (human Cat L) [nM] | IC50 (human Cat K) [nM]
1 | CCC[C@H](NC(=O)[C@@H]1C[C@@H](S(=O)(=O)c2ccccc2Cl)CN1C(=O)C1(c2ccc(Cl)cc2)CC1)C(=O)C(=O)NC1CC1 [Example 9, (2S,4R)-1-(1-(4-chlorophenyl)cyclopropanecarbonyl)-4-(2-chlorophenylsulfonyl)-N—((S)-1-(cyclopropylamino)-1,2-dioxohexan-3-yl)pyrrolidine-2-carboxamide] | 43.3 | 0.367 | 4.7 | 19.6
2 | CCC[C@H](NC(=O)[C@@H]1C[C@@H](S(=O)(=O)c2ccccc2C(F)(F)F)CN1C(=O)C1(c2ccc(Cl)cc2)CC1)C(=O)C(=O)NC1CC1 [Example 22, (2S,4R)-1-(1-(4-chlorophenyl)cyclopropanecarbonyl)-N—((S)-1-(cyclopropylamino)-1,2-dioxohexan-3-yl)-4-(2-(trifluoromethyl)phenylsulfonyl)pyrrolidine-2-carboxamide] | 144 | 0.983 | 26.6 | 405
3 | CC[C@H](NC(=O)[C@@H]1C[C@@H](S(=O)(=O)c2ccc(Cl)cc2Cl)CN1C(=O)C1(c2ccc(Cl)cc2)CC1)C(=O)C(=O)NC1CC1 [Example 38, (2S,4R)-1-(1-(4-chlorophenyl)cyclopropanecarbonyl)-N—((S)-1-(cyclopropylamino)-1,2-dioxopentan-3-yl)-4-(2,4-dichlorophenylsulfonyl)pyrrolidine-2-carboxamide] | 154 | 0.34 | 10.6 | 53.3
4 | CCCCNC(=O)C(=O)[C@H](CCC)NC(=O)[C@@H]1C[C@@H](S(=O)(=O)c2ccccc2Cl)CN1C(=O)C1(c2ccc(Cl)cc2)CC1 [Example 32, (2S,4R)—N—((S)-1-(butylamino)-1,2-dioxohexan-3-yl)-1-(1-(4-chlorophenyl)cyclopropanecarbonyl)-4-(2-chlorophenylsulfonyl)pyrrolidine-2-carboxamide] | 29.4 | 0.734 | 7.7 | 24
5 | CC[C@H](NC(=O)[C@@H]1C[C@@H](S(=O)(=O)c2ccc(F)cc2Cl)CN1C(=O)C1(c2ccc(Cl)cc2)CC1)C(=O)C(=O)NC1CC1 [Example 39, (2S,4R)-4-(2-chloro-4-fluorophenylsulfonyl)-1-(1-(4-chlorophenyl)cyclopropanecarbonyl)-N—((S)-1-(cyclopropylamino)-1,2-dioxopentan-3-yl)pyrrolidine-2-carboxamide] | 140 | 0.558 | 11.4 | 63.6
6 | CC[C@H](NC(=O)[C@@H]1C[C@@H](S(=O)(=O)c2ccccc2Cl)CN1C(=O)C1(c2ccc(Cl)cc2)CC1)C(=O)C(=O)NCCc1cccc2ccccc12 [Example 50, (2S,4R)-1-(1-(4-chlorophenyl)cyclopropanecarbonyl)-4-(2-chlorophenylsulfonyl)-N—((S)-1-(2-(naphthalen-1-yl)ethylamino)-1,2-dioxopentan-3-yl)pyrrolidine-2-carboxamide] | 68.8 | 2.76 | 8.6 | 119
7 | CCCCNC(=O)C(=O)[C@H](CC)NC(=O)[C@@H]1C[C@@H](S(=O)(=O)c2ccccc2Cl)CN1C(=O)C1(c2ncc(Cl)cc2F)CC1 [Example 60, (2S,4R)—N—((S)-1-(butylamino)-1,2-dioxopentan-3-yl)-1-(1-(5-chloro-3-fluoropyridin-2-yl)cyclopropanecarbonyl)-4-(2-chlorophenylsulfonyl)pyrrolidine-2-carboxamide] | 354 | 2.87 | 6.1 | 144
8 | CC[C@H](NC(=O)[C@@H]1C[C@@H](S(=O)(=O)c2ccc(O[C@@H](C)C(F)(F)F)cc2Cl)CN1C(=O)C1(c2ccc(Cl)cc2)CC1)C(=O)C(=O)NC1CC1 [Example 45, (2S,4R)-4-(2-chloro-4-((S)-1,1,1-trifluoropropan-2-yloxy)phenylsulfonyl)-1-(1-(4-chlorophenyl)cyclopropanecarbonyl)-N—((S)-1-(cyclopropylamino)-1,2-dioxopentan-3-yl)pyrrolidine-2-carboxamide] | 335 | 5.43 | 74.9 | 212
9 | CC[C@H](NC(=O)[C@@H]1C[C@@H](S(=O)(=O)c2ccc(F)cc2C(F)(F)F)CN1c1cc(C)nn1C1CCC1)C(=O)C(=O)NC1CC1 [Example 4, (2S,4R)-1-(1-cyclobutyl-3-methyl-1H-pyrazol-5-yl)-N—((S)-1-(cyclopropylamino)-1,2-dioxopentan-3-yl)-4-(4-fluoro-2-(trifluoromethyl)phenylsulfonyl)pyrrolidine-2-carboxamide] | 2920 | 2.98 | 551 | 5890
10 | CC[C@H](NC(=O)[C@@H]1C[C@@H](S(=O)(=O)c2ccccc2Cl)CN1C(=O)C1(c2ccc(Cl)cc2)CC1)C(=O)C(=O)NC1CC1 [Example 8, (2S,4R)-1-(1-(4-chlorophenyl)cyclopropanecarbonyl)-4-(2-chlorophenylsulfonyl)-N—((S)-1-(cyclopropylamino)-1,2-dioxopentan-3-yl)pyrrolidine-2-carboxamide] | 62.7 | 0.296 | 4.3 | 27.6
11 | O=C(NC1CC1)C(=O)C1(NC(=O)[C@@H]2C[C@@H](S(=O)(=O)c3ccccc3Cl)CN2C(=O)C2(c3ccc(Cl)cc3)CC2)CC1 [Example 27, (2S,4R)-1-(1-(4-chlorophenyl)cyclopropanecarbonyl)-4-(2-chlorophenylsulfonyl)-N-(1-(2-(cyclopropylamino)-2-oxoacetyl)cyclopropyl)pyrrolidine-2-carboxamide] | 25000 | 17.9 | 6800 | 25000
12 | CC[C@H](NC(=O)[C@@H]1C[C@@H](S(=O)(=O)c2ccccc2C(F)(F)F)CN1c1ccccc1[N+](=O)[O-])C(=O)C(=O)NC1CC1 [Example 3, (2S,4R)—N—((S)-1-(cyclopropylamino)-1,2-dioxopentan-3-yl)-1-(2-nitrophenyl)-4-(2-(trifluoromethyl)phenylsulfonyl)pyrrolidine-2-carboxamide] | 3180 | 1 | 1550 | 7430
13 | CCC[C@H](NC(=O)[C@@H]1C[C@@H](S(=O)(=O)c2ccccc2Cl)CN1C(=O)C1(c2ccc(Br)cc2)CC1)C(=O)C(=O)NC1CC1 [Example 16, (2S,4R)-1-(1-(4-bromophenyl)cyclopropanecarbonyl)-4-(2-chlorophenylsulfonyl)-N—((S)-1-(cyclopropylamino)-1,2-dioxohexan-3-yl)pyrrolidine-2-carboxamide] | 45.4 | 0.442 | 5.9 | 20.2
14 | CC[C@H](NC(=O)[C@@H]1C[C@@H](S(=O)(=O)c2ccccc2C(F)(F)F)CN1C(=O)C1(c2ncc(Cl)cc2F)CC1)C(=O)C(=O)NC1CC1 [Example 19, (2S,4R)-1-(1-(5-chloro-3-fluoropyridin-2-yl)cyclopropanecarbonyl)-N—((S)-1-(cyclopropylamino)-1,2-dioxopentan-3-yl)-4-(2-(trifluoromethyl)phenylsulfonyl)pyrrolidine-2-carboxamide] | 424 | 0.593 | 32.4 | 758
15 | CCC[C@H](NC(=O)[C@@H]1C[C@@H](S(=O)(=O)c2ccc(O[C@@H](C)C(F)(F)F)cc2Cl)CN1C(=O)C1(c2ccc(Cl)cc2)CC1)C(=O)C(=O)NC1CC1 [Example 46, (2S,4R)-4-(2-chloro-4-((S)-1,1,1-trifluoropropan-2-yloxy)phenylsulfonyl)-1-(1-(4-chlorophenyl)cyclopropanecarbonyl)-N—((S)-1-(cyclopropylamino)-1,2-dioxohexan-3-yl)pyrrolidine-2-carboxamide] | 224 | 5.98 | 67.1 | 251
16 | CCC[C@H](NC(=O)[C@@H]1C[C@@H](S(=O)(=O)c2ccccc2Cl)CN1C(=O)C1(c2ncc(Cl)cc2F)CC1)C(=O)C(=O)NCc1ccccc1 [Example 62, (2S,4R)—N—((S)-1-(benzylamino)-1,2-dioxohexan-3-yl)-1-(1-(5-chloro-3-fluoropyridin-2-yl)cyclopropanecarbonyl)-4-(2-chlorophenylsulfonyl)pyrrolidine-2-carboxamide] | 120 | 2.35 | 6 | 41.2
17 | C[C@H](NC(=O)[C@@H]1C[C@@H](S(=O)(=O)c2ccccc2Cl)CN1C(=O)C1(c2ccc(Cl)cc2)CC1)C(=O)C(=O)NC1CC1 [Example 34, (2S,4R)-1-(1-(4-chlorophenyl)cyclopropanecarbonyl)-4-(2-chlorophenylsulfonyl)-N—((S)-4-(cyclopropylamino)-3,4-dioxobutan-2-yl)pyrrolidine-2-carboxamide] | 399 | 0.787 | 28 | 444
18 | CC[C@H](NC(=O)[C@@H]1C[C@@H](S(=O)(=O)c2ccccc2Cl)CN1C(=O)C1(c2ccc(Cl)cc2)CC1)C(=O)C(=O)NCC(C)C [Example 55, (2S,4R)-1-(1-(4-chlorophenyl)cyclopropanecarbonyl)-4-(2-chlorophenylsulfonyl)-N—((S)-1-(isobutylamino)-1,2-dioxopentan-3-yl)pyrrolidine-2-carboxamide] | 61.6 | 0.876 | 2.6 | 56.5
